Legend:
Test in all cases: biochemical
Details in all cases: read-out: % Inhibition (at 10mM)
RSK4 = target: T1, RSK4 (Homo sapiens, UniProt Q9UK32)
T1 construct: gene RPS6KA6

MSSK1 = target: T2, MSSK1 (Homo sapiens, UniProt Q9UPE1)
T2 construct: gene SRPK3

EphB3 = EphB3 (Homo sapiens, UniProt P54753)
TYK2 = TYK2 (Homo sapiens, UniProt P29597)
Axl = Axl (Homo sapiens, UniProt P30530)
ErbB4 = ErbB4 (Homo sapiens, UniProt Q15303)
PDK1(direct) = target: T3, PDK1(direct) (Homo sapiens, UniProt O15530)
T3 construct: gene PDPK1; direct

TrkB = target: T4, TrkB (Homo sapiens, UniProt Q16620)
T4 construct: gene NTRK2

AKT3 = AKT3 (Homo sapiens, UniProt Q9Y243)
RSK3 = target: T5, RSK3 (Homo sapiens, UniProt Q15349)
T5 construct: gene RPS6KA2

PKC_theta = target: T6, PKC_theta (Homo sapiens, UniProt Q04759)
T6 construct: gene PRKCQ

PCTK2 = target: T7, PCTK2 (Homo sapiens, UniProt Q00537)
T7 construct: gene CDK17

TNK1 = TNK1 (Homo sapiens, UniProt Q13470)
PASK = PASK (Homo sapiens, UniProt Q96RG2)
PEAK1 = PEAK1 (Homo sapiens, UniProt Q9H792)
CK1_epsilon1 = target: T8, CK1_epsilon1 (Homo sapiens, UniProt P49674)
T8 construct: gene CSNK1E; epsilon 1

DYRK1A = DYRK1A (Homo sapiens, UniProt Q13627)
FGFR3 = FGFR3 (Homo sapiens, UniProt P22607)
DYRK4 = DYRK4 (Homo sapiens, UniProt Q9NR20)
PRAK = target: T9, PRAK (Homo sapiens, UniProt Q8IW41)
T9 construct: gene MAPKAPK5

MST3 = target: T10, MST3 (Homo sapiens, UniProt Q9Y6E0)
T10 construct: gene STK24

PRKAA2_B1_G3 = target: T11, PRKAA2_B1_G3 (Homo sapiens, UniProt P54646)
T11 construct: gene PRKAA2

NEK1 = NEK1 (Homo sapiens, UniProt Q96PY6)
MELK = MELK (Homo sapiens, UniProt Q14680)
PIM3 = PIM3 (Homo sapiens, UniProt Q86V86)
HIPK4 = HIPK4 (Homo sapiens, UniProt Q8NE63)
PhK_gamma1 = target: T12, PhK_gamma1 (Homo sapiens, UniProt Q16816)
T12 construct: gene PHKG1

CHK2 = target: T13, CHK2 (Homo sapiens, UniProt O96017)
T13 construct: gene CHEK2

TBK1 = TBK1 (Homo sapiens, UniProt Q9UHD2)
MAP4K4 = MAP4K4 (Homo sapiens, UniProt O95819)
ACVR1B = ACVR1B (Homo sapiens, UniProt P36896)
Frk = Frk (Homo sapiens, UniProt P42685)
DCAMKL2 = target: T14, DCAMKL2 (Homo sapiens, UniProt Q8N568)
T14 construct: gene DCLK2

NEK2 = NEK2 (Homo sapiens, UniProt P51955)
Hyl = target: T15, Hyl (Homo sapiens, UniProt P42679)
T15 construct: gene MATK

TSSK1 = target: T16, TSSK1 (Homo sapiens, UniProt Q9BXA7)
T16 construct: gene TSSK1B

DYRK3 = DYRK3 (Homo sapiens, UniProt O43781)
NEK7 = NEK7 (Homo sapiens, UniProt Q8TDX7)

T10 sequence (Q9Y6E0 whole entry): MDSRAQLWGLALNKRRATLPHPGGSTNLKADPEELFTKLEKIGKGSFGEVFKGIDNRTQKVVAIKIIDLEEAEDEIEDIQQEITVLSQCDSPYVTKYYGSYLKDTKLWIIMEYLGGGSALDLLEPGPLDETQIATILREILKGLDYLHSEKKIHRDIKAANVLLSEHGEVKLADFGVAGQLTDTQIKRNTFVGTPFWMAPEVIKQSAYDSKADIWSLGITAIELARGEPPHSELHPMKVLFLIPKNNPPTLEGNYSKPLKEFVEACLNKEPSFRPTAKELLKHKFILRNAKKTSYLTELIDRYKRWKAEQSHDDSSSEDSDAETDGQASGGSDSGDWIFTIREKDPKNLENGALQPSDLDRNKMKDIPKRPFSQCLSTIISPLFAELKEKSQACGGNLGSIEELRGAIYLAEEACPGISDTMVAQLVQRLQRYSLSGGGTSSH
T8 sequence (P49674 whole entry): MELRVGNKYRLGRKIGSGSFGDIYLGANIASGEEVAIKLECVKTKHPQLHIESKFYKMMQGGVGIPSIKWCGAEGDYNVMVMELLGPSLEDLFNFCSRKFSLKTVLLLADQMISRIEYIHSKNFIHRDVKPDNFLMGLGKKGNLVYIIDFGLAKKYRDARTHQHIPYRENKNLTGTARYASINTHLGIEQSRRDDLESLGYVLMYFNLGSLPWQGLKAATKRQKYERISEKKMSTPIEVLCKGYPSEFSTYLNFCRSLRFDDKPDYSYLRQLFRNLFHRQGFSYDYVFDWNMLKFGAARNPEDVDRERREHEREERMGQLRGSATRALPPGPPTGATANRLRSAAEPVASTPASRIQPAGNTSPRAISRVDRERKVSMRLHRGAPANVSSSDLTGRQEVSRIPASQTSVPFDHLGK
Sequence of PEAK1 (Q9H792 whole entry): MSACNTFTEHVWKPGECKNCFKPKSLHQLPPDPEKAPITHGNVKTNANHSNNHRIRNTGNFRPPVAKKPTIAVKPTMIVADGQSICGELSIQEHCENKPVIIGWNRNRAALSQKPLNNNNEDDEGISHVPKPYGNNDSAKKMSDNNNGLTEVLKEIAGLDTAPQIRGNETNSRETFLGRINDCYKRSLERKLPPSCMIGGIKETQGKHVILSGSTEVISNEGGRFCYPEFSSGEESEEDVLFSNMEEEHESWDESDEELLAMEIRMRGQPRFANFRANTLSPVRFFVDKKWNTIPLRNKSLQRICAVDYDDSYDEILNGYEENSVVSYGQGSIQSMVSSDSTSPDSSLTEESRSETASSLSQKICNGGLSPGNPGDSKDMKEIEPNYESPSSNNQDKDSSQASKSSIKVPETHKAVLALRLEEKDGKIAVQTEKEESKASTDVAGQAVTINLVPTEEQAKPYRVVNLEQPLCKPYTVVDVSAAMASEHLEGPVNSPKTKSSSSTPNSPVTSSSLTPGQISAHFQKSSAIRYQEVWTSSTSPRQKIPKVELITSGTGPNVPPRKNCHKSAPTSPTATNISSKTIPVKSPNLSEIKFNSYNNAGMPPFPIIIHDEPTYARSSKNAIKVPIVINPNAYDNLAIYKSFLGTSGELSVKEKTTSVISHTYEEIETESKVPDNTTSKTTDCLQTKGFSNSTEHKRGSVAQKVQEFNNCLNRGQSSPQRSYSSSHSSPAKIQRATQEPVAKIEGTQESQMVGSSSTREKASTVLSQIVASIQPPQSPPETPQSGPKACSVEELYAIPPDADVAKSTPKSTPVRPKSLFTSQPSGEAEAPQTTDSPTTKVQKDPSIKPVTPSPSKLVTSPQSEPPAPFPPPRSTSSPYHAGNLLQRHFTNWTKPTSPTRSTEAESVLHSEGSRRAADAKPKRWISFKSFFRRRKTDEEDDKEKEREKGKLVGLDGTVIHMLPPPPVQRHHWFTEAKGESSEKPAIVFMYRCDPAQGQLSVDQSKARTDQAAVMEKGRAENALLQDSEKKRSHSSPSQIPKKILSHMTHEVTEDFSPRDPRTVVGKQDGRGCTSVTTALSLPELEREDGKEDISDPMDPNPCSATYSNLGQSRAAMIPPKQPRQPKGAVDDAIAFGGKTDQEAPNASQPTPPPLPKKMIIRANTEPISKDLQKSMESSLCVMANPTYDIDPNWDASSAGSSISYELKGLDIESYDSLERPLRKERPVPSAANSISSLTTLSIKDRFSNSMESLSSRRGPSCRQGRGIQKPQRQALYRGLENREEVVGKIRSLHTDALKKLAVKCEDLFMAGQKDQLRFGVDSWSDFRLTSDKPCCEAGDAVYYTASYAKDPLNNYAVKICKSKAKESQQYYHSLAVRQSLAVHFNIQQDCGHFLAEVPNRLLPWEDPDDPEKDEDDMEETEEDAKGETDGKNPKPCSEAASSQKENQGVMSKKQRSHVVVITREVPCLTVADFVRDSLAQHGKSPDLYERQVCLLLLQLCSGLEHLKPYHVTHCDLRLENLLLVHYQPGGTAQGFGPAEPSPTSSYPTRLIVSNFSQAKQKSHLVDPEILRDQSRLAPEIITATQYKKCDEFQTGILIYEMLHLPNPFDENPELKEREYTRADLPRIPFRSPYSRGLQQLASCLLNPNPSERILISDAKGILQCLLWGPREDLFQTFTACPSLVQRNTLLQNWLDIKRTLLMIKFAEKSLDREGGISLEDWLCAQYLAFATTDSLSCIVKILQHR
T12 sequence (Q16816 whole entry): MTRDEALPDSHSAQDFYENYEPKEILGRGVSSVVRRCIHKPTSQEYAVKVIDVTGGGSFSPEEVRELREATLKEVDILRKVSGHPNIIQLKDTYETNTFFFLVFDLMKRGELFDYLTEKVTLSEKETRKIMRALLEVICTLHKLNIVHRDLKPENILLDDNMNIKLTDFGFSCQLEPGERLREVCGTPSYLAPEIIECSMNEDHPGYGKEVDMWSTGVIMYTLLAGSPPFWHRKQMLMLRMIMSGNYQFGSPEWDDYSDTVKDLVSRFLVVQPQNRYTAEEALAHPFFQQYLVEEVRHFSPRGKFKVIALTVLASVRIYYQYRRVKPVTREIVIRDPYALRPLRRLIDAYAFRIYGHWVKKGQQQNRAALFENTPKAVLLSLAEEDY
T14 sequence (Q8N568 whole entry): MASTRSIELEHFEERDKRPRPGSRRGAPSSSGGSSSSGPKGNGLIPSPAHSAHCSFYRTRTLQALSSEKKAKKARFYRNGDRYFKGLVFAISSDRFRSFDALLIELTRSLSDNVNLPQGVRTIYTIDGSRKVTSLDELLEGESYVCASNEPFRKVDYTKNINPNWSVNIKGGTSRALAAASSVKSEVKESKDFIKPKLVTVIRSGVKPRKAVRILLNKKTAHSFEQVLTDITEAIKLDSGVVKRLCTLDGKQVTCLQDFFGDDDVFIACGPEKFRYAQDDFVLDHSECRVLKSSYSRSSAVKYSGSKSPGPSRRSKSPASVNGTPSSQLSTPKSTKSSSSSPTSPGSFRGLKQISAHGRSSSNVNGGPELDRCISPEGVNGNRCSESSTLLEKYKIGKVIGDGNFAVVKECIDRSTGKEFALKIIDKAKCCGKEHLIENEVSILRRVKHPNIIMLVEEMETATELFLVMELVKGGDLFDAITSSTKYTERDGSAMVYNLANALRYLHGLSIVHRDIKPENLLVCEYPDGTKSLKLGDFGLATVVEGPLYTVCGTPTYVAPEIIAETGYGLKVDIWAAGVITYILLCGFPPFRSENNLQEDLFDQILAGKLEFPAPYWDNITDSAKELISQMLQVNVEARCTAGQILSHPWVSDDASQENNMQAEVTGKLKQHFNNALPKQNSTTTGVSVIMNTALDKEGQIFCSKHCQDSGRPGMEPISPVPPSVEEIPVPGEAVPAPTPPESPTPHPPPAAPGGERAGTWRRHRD
T2 sequence (Q9UPE1 whole entry): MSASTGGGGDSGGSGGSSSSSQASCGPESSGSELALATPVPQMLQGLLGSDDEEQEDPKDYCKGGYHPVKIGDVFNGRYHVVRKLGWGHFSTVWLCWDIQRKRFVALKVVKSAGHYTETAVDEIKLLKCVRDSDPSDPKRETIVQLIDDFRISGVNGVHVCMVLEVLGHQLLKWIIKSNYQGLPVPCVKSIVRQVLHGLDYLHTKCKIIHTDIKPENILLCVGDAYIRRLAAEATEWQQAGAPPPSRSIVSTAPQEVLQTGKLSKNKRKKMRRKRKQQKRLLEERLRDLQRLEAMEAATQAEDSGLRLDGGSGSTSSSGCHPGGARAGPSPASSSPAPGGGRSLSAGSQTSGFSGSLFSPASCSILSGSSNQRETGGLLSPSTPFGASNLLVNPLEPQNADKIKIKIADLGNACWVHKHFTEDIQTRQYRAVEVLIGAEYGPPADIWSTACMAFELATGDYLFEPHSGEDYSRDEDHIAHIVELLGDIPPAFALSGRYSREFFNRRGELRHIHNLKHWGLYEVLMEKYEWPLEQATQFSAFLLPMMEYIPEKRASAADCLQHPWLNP
T15 sequence (P42679 whole entry): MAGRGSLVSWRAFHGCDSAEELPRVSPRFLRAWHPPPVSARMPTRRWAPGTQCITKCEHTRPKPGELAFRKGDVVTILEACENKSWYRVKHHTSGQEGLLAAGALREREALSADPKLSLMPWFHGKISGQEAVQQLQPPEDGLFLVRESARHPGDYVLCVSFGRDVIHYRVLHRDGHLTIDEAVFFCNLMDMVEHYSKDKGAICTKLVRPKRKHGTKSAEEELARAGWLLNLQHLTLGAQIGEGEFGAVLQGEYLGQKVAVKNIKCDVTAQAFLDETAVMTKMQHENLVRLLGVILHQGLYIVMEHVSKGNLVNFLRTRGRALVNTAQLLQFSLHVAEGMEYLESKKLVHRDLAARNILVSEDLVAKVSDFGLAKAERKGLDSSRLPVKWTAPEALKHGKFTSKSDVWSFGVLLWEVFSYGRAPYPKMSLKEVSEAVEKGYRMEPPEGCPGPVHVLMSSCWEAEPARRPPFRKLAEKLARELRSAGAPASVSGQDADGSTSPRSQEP

Q: For CC(C)(O)CC(=O)NCCn1ccc2ncnc(Nc3ccc(Oc4cccc(C(F)(F)F)c4)c(Cl)c3)c21 [TAK-285], which inhibition (RSK4) is on record?
A: The inhibition was 2.5%.

Q: What about the inhibition (MSSK1) of the same molecule?
A: The inhibition was 5%.

Q: What about the inhibition (EphB3) of the same molecule?
A: The inhibition was 6.5%.

Q: And the inhibition (TYK2)?
A: The inhibition was 4.5%.

Q: What about the inhibition (Axl) of the same molecule?
A: The inhibition was 5%.

Q: And the inhibition (ErbB4)?
A: The inhibition was 98.5%.

Q: And the inhibition (PDK1(direct))?
A: The inhibition was 9%.

Q: What about the inhibition (TrkB) of the same molecule?
A: Its inhibition is 4.5%.

Q: And the inhibition (AKT3)?
A: Its inhibition is 5%.

Q: What about the inhibition (RSK3) of the same molecule?
A: Its inhibition is 2.5%.

Q: What about the inhibition (PKC_theta) of the same molecule?
A: The inhibition was 12%.

Q: And the inhibition (PCTK2)?
A: The inhibition was 0.5%.

Q: What about the inhibition (TNK1) of the same molecule?
A: The inhibition was 12%.

Q: And the inhibition (PASK)?
A: The inhibition was 2.5%.

Q: And the inhibition (PEAK1)?
A: The inhibition was 11%.

Q: What about the inhibition (CK1_epsilon1) of the same molecule?
A: Its inhibition is 10.5%.

Q: What about the inhibition (DYRK1A) of the same molecule?
A: Its inhibition is 9.5%.

Q: What about the inhibition (FGFR3) of the same molecule?
A: Its inhibition is -6%.

Q: And the inhibition (DYRK4)?
A: Its inhibition is 1.5%.

Q: What about the inhibition (PRAK) of the same molecule?
A: The inhibition was 3.5%.

Q: What about the inhibition (MST3) of the same molecule?
A: The inhibition was 7%.

Q: What about the inhibition (PRKAA2_B1_G3) of the same molecule?
A: The inhibition was 4%.

Q: What about the inhibition (NEK1) of the same molecule?
A: Its inhibition is 1.5%.

Q: And the inhibition (MELK)?
A: Its inhibition is 5.5%.

Q: And the inhibition (PIM3)?
A: The inhibition was 1%.

Q: What about the inhibition (HIPK4) of the same molecule?
A: Its inhibition is 5.5%.

Q: What about the inhibition (PhK_gamma1) of the same molecule?
A: Its inhibition is 7.5%.

Q: What about the inhibition (CHK2) of the same molecule?
A: Its inhibition is 20%.

Q: What about the inhibition (TBK1) of the same molecule?
A: Its inhibition is 8%.

Q: What about the inhibition (MAP4K4) of the same molecule?
A: Its inhibition is -0.5%.

Q: And the inhibition (ACVR1B)?
A: Its inhibition is -5%.

Q: What about the inhibition (Frk) of the same molecule?
A: The inhibition was 4.5%.

Q: And the inhibition (DCAMKL2)?
A: Its inhibition is -9.5%.

Q: And the inhibition (NEK2)?
A: Its inhibition is 4%.

Q: And the inhibition (Hyl)?
A: The inhibition was -2.5%.

Q: And the inhibition (TSSK1)?
A: The inhibition was -6.5%.

Q: And the inhibition (DYRK3)?
A: The inhibition was -0.5%.

Q: And the inhibition (NEK7)?
A: Its inhibition is 7%.

From PMC6978363, “Chaperone mediated detection of small molecule target binding in cells” (Nature Communications, 2020)
